Data published in the SangsterLogP compilation.

Assay: from Ebert, E.; Eckhardt, W.; Jakel, K.; Moser, P.; Sozzi, D.; Vogel, C. (1989). Quantitative structure-activity relationships of fungicidally active triazoles: analogs and stereoisomers of propiconazole …
Conditions: pH 7.0
With Cc1ccc(C2(Cn3cncn3)OCCO2)cc1 the logD was 1.55. Compound OCC1COC(Cn2cncn2)(c2ccc(Cl)cc2Cl)O1 (stereo not given) has a logD of 1.76. In the case of CCC1COC(Cn2cncn2)(c2ccc(-c3ccccc3)cc2)O1 (stereo not given), the logD is reported as 3.71. CC1COC(Cn2cncn2)(c2ccc(-n3cncn3)cc2Cl)O1 (stereo not given) gave a logD of 1.28. Compound CCC1COC(Cn2cncn2)(c2ccc([N+](=O)[O-])cc2)O1 (stereo not given) has a logD of 1.52. For CCC1COC(Cn2cncn2)(c2ccc(Cl)cc2Cl)O1 (stereo not given), the logD was 3.03. For CCC1COC(Cn2cncn2)(c2ccc(NC(=O)c3ccc([N+](=O)[O-])cc3)cc2)O1 (stereo not given), the logD was 2.17. In the case of CCC1COC(Cn2cncn2)(c2ccc(NC(=O)C(F)(F)F)cc2)O1 (stereo not given), the logD is reported as 1.08. For CCC1COC(Cn2cncn2)(c2ccc(NC(=O)NC)cc2)O1 (stereo not given), the logD was 0.62. COCCOCC1COC(Cn2cncn2)(c2ccc(Cl)cc2Cl)O1 (stereo not given) gave a logD of 2.03.
